In this experiment the target is Full-length inactive AKT1 (Homo sapiens, UniProt P31749). Kind of experiment: Inactive Akt Alpha Screen Assay. The conditions noted are these: values not marked with "*"; read-out: Akt1 IC50, (AlphaScreen). The class given is biochemical. As for the experimental part:
AKT1 activity was assayed using the GSK3-derived biotinylated peptide substrate, crosstide (biotin-[…]), and AlphaScreen™ (Amplified Luminescent Proximity Homogeneous Assay) technology. AKT1 activation was achieved by the addition of the activating kinases PDK1 and MAPKAPK2, lipid vesicles, and ATP. The extent of peptide phosphorylation was determined using a phospho-AKT substrate antibody and acceptor beads conjugated to Protein A and donor beads conjugated to streptavidin that bind to the biotin on the peptide. Excitation of the donor beads converted ambient oxygen to excited singlet oxygen which, when in close proximity to acceptor beads, reacted with acceptor beads resulting in signal amplification.
Assay plates were incubated for 90 minutes at room temperature in the dark, and the plates were read on a Perkin Elmer Envision Multilabel plate reader (excitation wavelength: […], emission wavelength: 570 nm).
Chain of Full-length inactive AKT1 (P31749 whole entry): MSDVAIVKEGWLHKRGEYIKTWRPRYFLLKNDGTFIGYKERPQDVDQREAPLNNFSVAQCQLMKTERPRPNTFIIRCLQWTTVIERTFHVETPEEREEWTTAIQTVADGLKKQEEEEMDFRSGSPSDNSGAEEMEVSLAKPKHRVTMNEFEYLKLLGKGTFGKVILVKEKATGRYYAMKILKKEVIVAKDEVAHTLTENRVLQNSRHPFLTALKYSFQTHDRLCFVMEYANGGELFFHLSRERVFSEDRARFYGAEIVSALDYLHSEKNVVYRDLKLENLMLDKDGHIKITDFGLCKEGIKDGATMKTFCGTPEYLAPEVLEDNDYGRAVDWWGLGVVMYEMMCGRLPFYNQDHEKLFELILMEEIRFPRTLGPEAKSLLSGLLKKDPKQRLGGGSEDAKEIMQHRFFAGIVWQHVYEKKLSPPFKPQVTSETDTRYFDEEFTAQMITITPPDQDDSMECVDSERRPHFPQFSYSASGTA
The IC50 is the midpoint of a concentration-inhibition curve. Regarding `Cc1ccc2cc(NC(=O)c3ccc(-n4c(-c5cccnc5N)nc5cccnc54)cc3)ccc2n1` [Example 180, 4-[2-(2-aminopyridin-3-yl)-3H-imidazo[4,5-b]pyridin-3-yl]-N-(2-methylquinolin-6-yl)benzamide], the IC50 came to 590 nM.

`CC(=O)Nc1ccc(NC(=O)c2ccc(-n3c(-c4cccnc4N)nc4cccnc43)cc2)cc1` [Example 181, N-[4-(acetylamino)phenyl]-4-[2-(2-aminopyridin-3-yl)-3H-imidazo[4,5-b]pyridin-3-yl]benzamide]: the IC50 is 840 nM.

Consider `Nc1ncccc1-c1nc2cccnc2n1-c1ccc(C(=O)Nc2ccc3c(c2)C(=O)OC3)cc1` [Example 182, 4-[2-(2-aminopyridin-3-yl)-3H-imidazo[4,5-b]pyridin-3-yl]-N-(3-oxo-1,3-dihydro-2-benzofuran-5-yl)benzamide], for which the half-inhibitory concentration (IC50) amounted to 1100 nM. With `N#Cc1cccc(NC(=O)c2ccc(-n3c(-c4cccnc4N)nc4cccnc43)cc2)c1` [Example 183, 4-[2-(2-aminopyridin-3-yl)-3H-imidazo[4,5-b]pyridin-3-yl]-N-(3-cyanophenyl)benzamide] the figure was 1500 nM; with `COc1cccc(NC(=O)c2ccc(-n3c(-c4cccnc4N)nc4cccnc43)cc2)c1` [Example 184, 4-[2-(2-aminopyridin-3-yl)-3H-imidazo[4,5-b]pyridin-3-yl]-N-(3-methoxyphenyl)benzamide], 1900 nM. As for `COc1ccc(NC(=O)c2ccc(-n3c(-c4cccnc4N)nc4cccnc43)cc2)cc1F` [Example 185, 4-[2-(2-aminopyridin-3-yl)-3H-imidazo[4,5-b]pyridin-3-yl]-N-(3-fluoro-4-methoxyphenyl)benzamide], the IC50 stood at 2500 nM. With `Cc1ccc(NC(=O)c2ccc(-n3c(-c4cccnc4N)nc4cccnc43)cc2)cc1` [Example 186, 4-[2-(2-aminopyridin-3-yl)-3H-imidazo[4,5-b]pyridin-3-yl]-N-(4-methylphenyl)benzamide] the figure was 2500 nM; with `Nc1ncccc1-c1nc2cc(C(F)(F)F)cnc2n1-c1ccc(CNC(=O)c2ccc(Br)cc2)cc1` [Example 187, N-{4-[2-(2-aminopyridin-3-yl)-6-(trifluoromethyl)-3H-imidazo[4,5-b]pyridin-3-yl]benzyl}-4-bromobenzamide], 2100 nM; with `Nc1ncccc1-c1nc2cc(C(F)(F)F)cnc2n1-c1ccc(CNC(=O)c2cccc(F)c2)cc1` [Example 188, N-{4-[2-(2-aminopyridin-3-yl)-6-(trifluoromethyl)-3H-imidazo[4,5-b]pyridin-3-yl]benzyl}-3-fluorobenzamide], 360 nM.

In the case of `Cc1ccnc2c1nc(-c1cccnc1N)n2-c1ccc(CNC(=O)c2cccc(F)c2)cc1` [Example 190, N-(4-(2-(2-aminopyridin-3-yl)-7-methyl-3H-imidazo[4,5-b]pyridin-3-yl)benzyl)-3-fluorobenzamide], the IC50 was 110 nM. In the case of `Nc1ncccc1-c1nc2ccc(N3CCCCC3)nc2n1-c1ccc(CNC(=O)c2ccc(Br)cc2)cc1` [Example 191, N-(4-(2-(2-aminopyridin-3-yl)-5-(piperidin-1-yl)-3H-imidazo[4,5-b]pyridin-3-yl)benzyl)-4-bromobenzamide], the IC50 amounted to 1100 nM. Under `Nc1ncccc1-c1nc2ccc(N3CCCCC3)nc2n1-c1ccc(CNC(=O)c2ccccc2)cc1` [Example 192, N-(4-(2-(2-aminopyridin-3-yl)-5-(piperidin-1-yl)-3H-imidazo[4,5-b]pyridin-3-yl)benzyl)benzamide] stands 200 nM; under `CC(=O)Nc1ccc(NC(=O)Cc2ccc(-n3c(-c4cccnc4N)nc4cc(C)cnc43)cc2)cc1` [Example 193, N-(4-acetamidophenyl)-2-(4-(2-(2-aminopyridin-3-yl)-6-methyl-3H-imidazo[4,5-b]pyridin-3-yl)phenyl)acetamide], 62 nM. Under `Cc1cnc2c(c1)nc(-c1cccnc1N)n2-c1ccc(CC(=O)Nc2ccc3nc(C)ccc3c2)cc1` [Example 194, 2-(4-(2-(2-aminopyridin-3-yl)-6-methyl-3H-imidazo[4,5-b]pyridin-3-yl)phenyl)-N-(2-methylquinolin-6-yl)acetamide] stands 47 nM; under `Cc1cnc2c(c1)nc(-c1cccnc1N)n2-c1ccc(CC(=O)Nc2ccccc2)cc1` [Example 195, 2-(4-(2-(2-aminopyridin-3-yl)-6-methyl-3H-imidazo[4,5-b]pyridin-3-yl)phenyl)-N-phenylacetamide], 76 nM; under `CS(=O)(=O)NCc1ccc(-n2c(-c3cccnc3N)nc3cc(-c4cccnc4)cnc32)cc1` [Example 196, N-(4-(2-(2-aminopyridin-3-yl)-6-(pyridin-3-yl)-3H-imidazo[4,5-b]pyridin-3-yl)benzyl)methanesulfonamide], 140 nM. Under `CC(=O)Nc1ccc(-c2cnc3c(c2)nc(-c2cccnc2N)n3-c2ccc(CNC(=O)c3ccccc3)cc2)cc1` [Example 197, N-(4-(6-(4-acetamidophenyl)-2-(2-aminopyridin-3-yl)-3H-imidazo[4,5-b]pyridin-3-yl)benzyl)benzamide] stands 47 nM. As for `Nc1ncccc1-c1nc2ccc(Cl)nc2n1-c1ccc(CNC(=O)c2ccccc2)cc1` [Example 198, N-(4-(2-(2-aminopyridin-3-yl)-5-chloro-3H-imidazo[4,5-b]pyridin-3-yl)benzyl)benzamide], the concentration for half-maximal inhibition (IC50) stood at 61 nM. With `Nc1ncccc1-c1nc2cc(C(F)(F)F)cnc2n1-c1ccc(CNC(=O)c2ccccc2)cc1` [Example 199, N-(4-(2-(2-aminopyridin-3-yl)-6-(trifluoromethyl)-3H-imidazo[4,5-b]pyridin-3-yl)benzyl)benzamide] the figure was 200 nM; with `Nc1ncccc1-c1nc2cc(-c3cccnc3)cnc2n1-c1ccc(CNS(=O)(=O)c2ccccc2)cc1` [Example 200, N-(4-(2-(2-aminopyridin-3-yl)-6-(pyridin-3-yl)-3H-imidazo[4,5-b]pyridin-3-yl)benzyl)benzenesulfonamide], 74 nM; with `Nc1ncccc1-c1nc2ccc(-c3cccnc3)nc2n1-c1ccc(CNC(=O)c2ccccc2)cc1` [Example 201, N-(4-(2-(2-aminopyridin-3-yl)-5-(pyridin-3-yl)-3H-imidazo[4,5-b]pyridin-3-yl)benzyl)benzamide], 32 nM. With `Nc1ncccc1-c1nc2ccc(-c3ccccc3)nc2n1-c1ccc(CNC(=O)c2ccccc2)cc1` [Example 202, N-(4-(2-(2-aminopyridin-3-yl)-5-phenyl-3H-imidazo[4,5-b]pyridin-3-yl)benzyl)benzamide], the half-maximal inhibitory concentration (IC50) worked out at 27 nM. With `Nc1ncccc1-c1nc2ccc(Cl)nc2n1-c1ccc(CNC(=O)c2cccc(F)c2)cc1` [Example 203, N-(4-(2-(2-aminopyridin-3-yl)-5-chloro-3H-imidazo[4,5-b]pyridin-3-yl)benzyl)-3-fluorobenzamide] the figure was 81 nM; with `CC(=O)Nc1cccc(-c2ccc3nc(-c4cccnc4N)n(-c4ccc(CNC(=O)c5cccc(F)c5)cc4)c3n2)c1` [Example 204, N-(4-(5-(3-acetamidophenyl)-2-(2-aminopyridin-3-yl)-3H-imidazo[4,5-b]pyridin-3-yl)benzyl)-3-fluorobenzamide], 7.3 nM.

`Nc1ncccc1-c1nc2cc(-c3cccnc3)cnc2n1-c1ccc(CNS(=O)(=O)C2CC2)cc1` [Example 205, N-(4-(2-(2-aminopyridin-3-yl)-6-(pyridin-3-yl)-3H-imidazo[4,5-b]pyridin-3-yl)benzyl)cyclopropanesulfonamide]: the IC50 was 59 nM. With `COc1ccc(S(=O)(=O)NCc2ccc(-n3c(-c4cccnc4N)nc4cc(-c5cccnc5)cnc43)cc2)cc1` [Example 206, N-(4-(2-(2-aminopyridin-3-yl)-6-(pyridin-3-yl)-3H-imidazo[4,5-b]pyridin-3-yl)benzyl)-4-methoxybenzenesulfonamide] the figure was 130 nM; with `Nc1ncccc1-c1nc2cc(-c3cccnc3)cnc2n1-c1ccc(CNS(=O)(=O)c2ccc(Cl)cc2)cc1` [Example 207, N-(4-(2-(2-aminopyridin-3-yl)-6-(pyridin-3-yl)-3H-imidazo[4,5-b]pyridin-3-yl)benzyl)-4-chlorobenzenesulfonamide], 60 nM. Under `CC(C)(C)OC(=O)NCc1ccc(-n2c(-c3cccnc3N)nc3ccc(-c4ccncc4)nc32)cc1` [Example 208, tert-butyl 4-(2-(2-aminopyridin-3-yl)-5-(pyridin-4-yl)-3H-imidazo[4,5-b]pyridin-3-yl)benzylcarbamate] stands 180 nM; under `Cc1ccnc2c1nc(-c1cccnc1N)n2-c1ccc(CNC(=O)c2ccccc2)cc1` [Example 210, N-(4-(2-(2-aminopyridin-3-yl)-7-methyl-3H-imidazo[4,5-b]pyridin-3-yl)benzyl)benzamide], 210 nM. Under `Cc1cnc2c(c1)nc(-c1cccnc1N)n2-c1ccc(CNC(=O)c2cccc(N(C)C)c2)cc1` [Example 211, N-(4-(2-(2-aminopyridin-3-yl)-6-methyl-3H-imidazo[4,5-b]pyridin-3-yl)benzyl)-3-(dimethylamino)benzamide] stands 61 nM. `Cc1cnc2c(c1)nc(-c1cccnc1N)n2-c1ccc(CNC(=O)c2cn(C)c3ccccc23)cc1` [Example 212, N-(4-(2-(2-aminopyridin-3-yl)-6-methyl-3H-imidazo[4,5-b]pyridin-3-yl)benzyl)-1-methyl-1H-indole-3-carboxamide]: the IC50 came to 200 nM.

Turning to `Cc1cnc2c(c1)nc(-c1cccnc1N)n2-c1ccc(CNC(=O)CCC2CCCCC2)cc1` [Example 213, N-(4-(2-(2-aminopyridin-3-yl)-6-methyl-3H-imidazo[4,5-b]pyridin-3-yl)benzyl)-3-cyclohexylpropanamide], the half-maximal inhibitory concentration (IC50) turned out to be 480 nM.

The values are drawn from patent publication US8501770B2 (ArQule, Inc., priority 2009, dated 2013).
